# Results from US20170107257A1, “CYCLIC APELIN ANALOGS” (LANTHIOPEP B.V., priority 2014, published 2017).
# Read-outs that look alike come from different tables or passages of the source. Numbered stars: 1 amine (or outer) side, 2 acyl side, 3 side chain; on linkers, the order of the positions; unused ones are H or OH. Bridge positions count the residues as written; N and C are the ends. Square brackets hold non-standard residues; d marks the D form. Peptide text beside a SMILES is read from it. ξ: configuration not given here. ξAbu(3ξ-yl) = CC(C(N[*:1])C(=O)[*:2])[*:3]; pGlu = O=C1CC[C@@H](C(=O)O)N1; ξC = NC(CS)C(=O)O
# Legend:
# hAPJ [1] = target: T1, hAPJ (Homo sapiens, UniProt P35414); test: hAPJ β-arrestin recruitment assay (PathHunter, CHO-K1); assay type: cell-based; settings: for EC50: 90 min incubation at 37° C., read-out: Relative EC50, Arrestin recruitment
# T1 construct: host or cells: CHO-K1
# T1 sequence (P32121 whole entry partner, one chain of several): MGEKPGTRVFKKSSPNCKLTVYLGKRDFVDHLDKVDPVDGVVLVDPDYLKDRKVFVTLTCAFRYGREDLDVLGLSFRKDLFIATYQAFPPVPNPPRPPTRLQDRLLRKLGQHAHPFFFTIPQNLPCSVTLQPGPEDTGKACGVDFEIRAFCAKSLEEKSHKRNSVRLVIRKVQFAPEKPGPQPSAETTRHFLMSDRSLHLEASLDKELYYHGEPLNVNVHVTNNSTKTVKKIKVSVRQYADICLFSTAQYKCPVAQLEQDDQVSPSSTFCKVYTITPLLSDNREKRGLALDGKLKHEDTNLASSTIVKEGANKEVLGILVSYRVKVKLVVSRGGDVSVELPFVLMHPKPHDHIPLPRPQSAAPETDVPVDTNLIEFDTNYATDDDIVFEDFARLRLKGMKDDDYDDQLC
# Method: Stimulation of hAPJ interaction with 6-arrestin is studied using the PathHunter™ system from DiscoveRx. CHO-K1 cell line was engineered to co-express the ProLink/Enzyme donor (PK)-tagged APJ and the enzyme activator (EA)-tagged 6-arrestin fusion proteins. Upon GPCR activation, enzyme fragment complementation occurs, to produce an active β-Gal enzyme. These cells are seeded at a density of 15000 cells/well. […] Following 90 min incubation at 37° C. with the compounds, cells are lysed and incubated with PathHunter reagent for 1 hour at room temperature. Samples are then read with an ultrasensitive luminescence protocol using an Envision instrument (Perkin Elmer).
# hAPJ [2] = target: T2, hAPJ (Homo sapiens, UniProt P35414); test: APJ competition binding assay ([125I]-Apelin 13, SPA, HEK293 membranes); set-up: expressed in transfected cells; host or cells: HEK293, adenoviral transduction (Ad-GFP-hAPJ); settings: competition with 0.06 nM [Glp65,Nle75,Tyr77][125I]-Apelin 13; read-out: Relative IC50, hAPJ BINDING
# T2 sequence (P35414 1-380): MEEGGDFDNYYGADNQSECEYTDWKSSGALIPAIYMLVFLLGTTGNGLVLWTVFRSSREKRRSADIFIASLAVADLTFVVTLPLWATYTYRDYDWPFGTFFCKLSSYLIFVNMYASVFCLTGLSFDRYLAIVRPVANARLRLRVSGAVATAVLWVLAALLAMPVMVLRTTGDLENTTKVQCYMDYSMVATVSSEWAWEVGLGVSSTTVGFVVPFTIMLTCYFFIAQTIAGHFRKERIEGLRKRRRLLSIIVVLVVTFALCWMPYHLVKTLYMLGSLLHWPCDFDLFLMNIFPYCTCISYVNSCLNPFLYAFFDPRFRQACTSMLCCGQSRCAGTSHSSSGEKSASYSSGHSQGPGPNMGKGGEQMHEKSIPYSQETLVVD
# Method: [Glp^65, Nle^75, Tyr^77][^125I]-Apelin 13 binding experiments are carried out in SPA 96-well format. Membranes used in this assay are prepared from HEK293 cells stably expressing either recombinant hAPJ or rAPJ. The incubation is initiated by the addition of a mixture of WGA PVT SPA beads (0.5 mg/well) and 0.08 μg of membranes to an assay buffer (25 mM HEPES, 10 mM MgCl2, 1 mM CaCl2, 0.1% BSA, pH7.4) containing 0.06 nM [Glp^65, Nle^75, Tyr^77][^125I]-Apelin 13 and increasing concentrations of the tested compound (10 point concentration response curves). Non-specific binding is determined in the presence of 100 nM apelin 17. Samples are incubated during eight hours at room temperature (22° C.). Then, 96-well plates are read in a Microbeta Trilux.
# hAPJ [3] = target: T2, hAPJ; test: cAMP assay (DiscoverX); assay type: cell-based
# Method: (§1) (Me)lan apelin variants were tested with cAMP and beta arrestin assays from the company DiscoverX.
# hAPJ [4] = target: T2, hAPJ; test: hAPJ receptor internalization assay (APJ-GFP translocation, HEK293); assay type: cell-based; set-up: expressed in transfected cells; host or cells: HEK293, adenoviral transduction (Ad-GFP-hAPJ); settings: 500 nM max, read-out: Relative EC50 (nM), hAPJ internalisation
# Method: HEK293 cells are seeded 24 hours prior to experiment at 50% confluence in 2×F75 flasks. The next morning, cells are trypsinized, vortexed for 60 seconds and passed through a 40 micron mesh filter. Cells are resuspended at a density of 300,000 cells/ml in OptiMEM+2% FBS, and Ad-GFP-hAPJ virus is added at an MOI of 1 PFU/cell. Cells are vortexed and dispensed into 96 well clear bottom, black dishes at a concentration of 10,000 cells/well. Cells are maintained at room temperature for 30 minutes to allow cell attachment to the dish prior to Incubation overnight at 37° C. in a 5% CO2 incubator. Next morning, apelin analogs are added in a concentration response curve (500 nM max). APJ-GFP translocation is observed and documented on Olympus FV con-focal microscope.
# [5] = Stability of apelin analogs in rat plasma; assay type: in vitro ADME
# Method: Stability of apelin analogs in rat plasma. […] Samples were quenched by acidifying to final concentration of 5% TFA. Samples were analyzed on HPLC. Peak heights were plotted as relative to the initial peak heights.
# [6] = target: T3, HEK293 cells expressing recombinant APJ receptors (Homo sapiens, UniProt P35414); test: Forskolin-stimulated cAMP assay (HTRF); assay type: cell-based; settings: 10 μM forskolin, 0.5 mM IBMX, 40 min; read-out: Relative EC50 (nM), cAMP
# T3 construct: expressed in transfected cells; host or cells: HEK293
# T3 sequence (P35414 1-380): T2 sequence (P35414 1-380)
# Method: Cyclic AMP level in HEK293 cells expressing recombinant APJ receptors is assayed by an HTRF competitive immunoassay. Cells at a density of 4000 cells/well are resuspended in assay buffer (HBSS containing Ca^2+ and Mg^2+ supplemented with 0.1% BSA and 5 mM HEPES) and added to the assay plate. Incubation for 40 min at room temperature is started with the addition of increasing concentrations of the compounds containing 10 μM forskolin and 0.5 mM IBMX. Reaction is stopped by addition of lysis buffer including d2-labeled cAMP, followed by addition of cryptate-labeled anti-cAMP monoclonal antibody, according to the manufacturer instructions. Time-resolved fluorescence at 620 and 665 nm is measured in an Envision instrument after 2 hour incubation at room temperature in the dark. cAMP content in the samples is determined by interpolation in a cAMP standard curve.
# hAPJ [7] = target: T2, hAPJ; test: beta arrestin assay (DiscoverX); assay type: cell-based; settings: for Ratio β-arrestin/cAMP: ratio of β-arrestin EC50 to cAMP EC50; for EC50: read-out: β-arrestin EC50
# Method: as §1
# [8] = system: human immunodeficiency virus; settings: cited from earlier work
activity in arrestin recruitment assay (hAPJ [1]),EC50 (hAPJ [1]),IC50 (hAPJ [2]),EC50 (hAPJ [3]),EC50 (hAPJ [4]),"half-life at 0.1 mg/ml ([5]; rat, plasma, pH 7.4)",EC50 [6],Ratio β-arrestin/cAMP (hAPJ [7]),EC50 (hAPJ [7]),SMILES,"half-life at 0.1 mg/ml ([5]; 10% rat plasma, pH 7.4, 37° C., 0.1 mg/ml, read-out: T50 stability in rat plasma (converted))",blocking of HIV entry into cells [8]
significant activity,0.0141 µM,0.115 µM,0.007 µM,1.25 nM,9 h,29.3 nM,9,0.067 µM,"CSCC[C@H](NC(=O)[C@@H]1CCCN1C(=O)C1CSC(C)C(NC(=O)[C@H](CC(C)C)NC(=O)[C@H](CCCNC(=N)N)NC(=O)[C@@H]2CCCN2C(=O)[C@H](CCCNC(=N)N)NC(=O)[C@@H]2CCC(=O)N2)C(=O)N[C@@H](Cc2c[nH]cn2)C(=O)N[C@@H](CCCCN)C(=O)N1)C(=O)N1CCC[C@H]1C(=O)N[C@@H](Cc1ccccc1)C(=O)O (stereo partly shown) [pEApeM5, pERPRLmelanHKmelanPMPF] ([pGlu]RPRL[ξAbu(3ξ-yl)]HK[ξC]PMPF-OH; thioether 6-9; C-terminus assumed)",,
,> 0.3 µM,> 1 µM,0.125 µM,> 1000 nM,24 h,> 300 nM,>8,> 1 µM,"CSCC[C@H](NC(=O)C1CSC(C)C(NC(=O)[C@H](CC(C)C)NC(=O)[C@H](CCCNC(=N)N)NC(=O)[C@@H]2CCCN2C(=O)[C@H](CCCNC(=N)N)NC(=O)[C@@H]2CCC(=O)N2)C(=O)N[C@@H](Cc2c[nH]cn2)C(=O)N[C@@H](CCCCN)C(=O)NCC(=O)N1)C(=O)N1CCC[C@H]1C(=O)N[C@@H](Cc1ccccc1)C(=O)O (stereo partly shown) [pEApeM8, pERPRLmeLanHKGmeLanMPF] ([pGlu]RPRL[ξAbu(3ξ-yl)]HKG[ξC]MPF-OH; thioether 6-10; C-terminus assumed)",,
,,,,,,,,,CSCC[C@H](NC(=O)[C@@H]1CCCN1C(=O)CNC(=O)[C@H](CCCCN)NC(=O)[C@H](Cc1c[nH]cn1)NC(=O)[C@H](CO)NC(=O)[C@H](CC(C)C)NC(=O)[C@H](CCCNC(=N)N)NC(=O)[C@@H]1CCCN1C(=O)[C@H](CCCNC(=N)N)NC(=O)[C@@H](N)CCC(N)=O)C(=O)N1CCC[C@H]1C(=O)N[C@@H](Cc1ccccc1)C(=O)O [reference compound],1 h,poorly blocks
